The target of this test is T1, rabKCC1 (Oryctolagus cuniculus, UniProt Q28677).
T1 construct: a full-length rabbit KCC1 cDNA was subcloned into pGEMHE; expressed in transfected cells; host or cells: Xenopus laevis oocytes injected with cRNA
T1 sequence (Q28677 1-1085): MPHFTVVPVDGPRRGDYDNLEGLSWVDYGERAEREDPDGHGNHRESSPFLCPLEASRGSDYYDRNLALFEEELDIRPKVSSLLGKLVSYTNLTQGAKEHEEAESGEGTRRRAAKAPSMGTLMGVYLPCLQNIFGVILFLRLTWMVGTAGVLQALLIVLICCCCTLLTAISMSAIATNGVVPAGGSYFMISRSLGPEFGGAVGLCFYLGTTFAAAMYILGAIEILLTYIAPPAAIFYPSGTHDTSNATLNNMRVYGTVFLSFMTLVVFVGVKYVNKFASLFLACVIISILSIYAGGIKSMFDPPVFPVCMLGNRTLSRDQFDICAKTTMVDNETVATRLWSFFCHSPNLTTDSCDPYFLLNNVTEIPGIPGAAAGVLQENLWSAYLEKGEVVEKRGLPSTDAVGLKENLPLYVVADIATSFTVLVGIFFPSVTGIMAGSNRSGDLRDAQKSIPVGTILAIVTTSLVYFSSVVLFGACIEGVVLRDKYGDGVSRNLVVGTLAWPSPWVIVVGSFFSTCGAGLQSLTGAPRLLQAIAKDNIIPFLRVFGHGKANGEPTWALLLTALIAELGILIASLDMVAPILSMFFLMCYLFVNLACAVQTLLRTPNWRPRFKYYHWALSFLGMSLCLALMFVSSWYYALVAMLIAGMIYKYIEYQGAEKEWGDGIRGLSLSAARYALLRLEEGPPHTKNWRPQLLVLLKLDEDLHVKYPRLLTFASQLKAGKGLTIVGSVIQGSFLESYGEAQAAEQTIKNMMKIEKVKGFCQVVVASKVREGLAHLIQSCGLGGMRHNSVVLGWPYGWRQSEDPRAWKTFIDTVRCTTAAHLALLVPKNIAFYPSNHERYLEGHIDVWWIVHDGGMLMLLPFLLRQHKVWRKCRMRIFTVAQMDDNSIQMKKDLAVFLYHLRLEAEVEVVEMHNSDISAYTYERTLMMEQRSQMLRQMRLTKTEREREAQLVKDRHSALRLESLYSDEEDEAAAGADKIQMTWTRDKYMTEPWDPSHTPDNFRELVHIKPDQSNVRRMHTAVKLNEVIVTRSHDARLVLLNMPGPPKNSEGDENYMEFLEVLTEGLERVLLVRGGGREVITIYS
In words: 86Rb+ uptake (K+-Cl- cotransport) in Xenopus oocytes injected with rabKCC1 cRNA. In kind it is cell-based, rabbit. As to conditions: for KCC1 function (86Rb+ uptake, % of control): 2 mM diuretic; for effect on activation of KCC1 by cell swelling: calyculin A 100 nM, okadaic acid 1 nM, cypermethrin 100 pM; for KCC1 function remaining: 100 μM DIDS. Here is the method:
On the next day, defolliculated stage V–VI oocytes were injected with 50 nl of water or a solution containing cRNA at a concentration of 0.25–0.5 μg/μl (25 ng/oocyte). […] The incubation medium was changed every 24 hours.
For functional comparison with mKCC4, a full-length rabbit KCC1 cDNA was subcloned into pGEMHE. […] To prepare a template for cRNA, the rabbit KCC1 and […] cDNAs were linearized at the 3′-end using NheI, and cRNA was transcribed in vitro using the T7 RNA polymerase and the mMESSAGE mMACHINE kit (Ambion, Inc. of Austin, Tex.). Transcription product integrity was confirmed on agarose gels, and concentration was determined by absorbance reading at 260 nm (DU 640 available from Beckman of Fullerton, Calif.).
K^+—Cl^− cotransport was assessed by measuring tracer ^86Rb^+ uptake (NEN® Life Science Products of Boston, Mass.) in experimental groups of at least 15 oocytes. […] Isotonic conditions were generated by supplementing the same solutions with 3.5 g/100 ml sucrose to reach isosmolar conditions for oocytes (˜210 mOsm/kg). Ouabain was added to prevent ^86Rb^+ uptake via the Na^+—K^+-ATPase.
All uptake assays were performed at 32° C. At the end of the uptake period, oocytes were washed five times in ice-cold uptake solution without isotope to remove extracellular fluid tracer. Oocytes were dissolved in 10% SDS, and tracer activity was determined for each oocyte by β-scintillation counting.
To determine the ion transport kinetics of KCC4 and KCC1, ^86Rb^+ uptake experiments were performed in variable concentrations of K^+ and Cl^−. The sensitivity for several inhibitors was assessed by exposing groups of oocytes to the inhibitors at concentrations varying from […] to 2 mM. For these experiments, the desired concentration of the inhibitor was present during both the incubation and uptake periods, except when noted.

[1] abbreviates: KCC1, counterion fixed at 50 mM, hypotonic.
Setting [2] is: KCC1, counterion fixed at 50 mM, hypotonic, read-out: apparent Km for extracellular ion.
Setting [3] is: 2 mM extracellular K+, hypotonic.
The mark [4] stands for this setting: 50 mM extracellular K+, hypotonic.

Read-outs that look alike come from different tables or passages of the source.

With `[K+]` [Potassium], the Hill coefficient – broadly, a measure of the steepness of the concentration-response curve – (KCC1) was 1.04±0.13. In addition, the “apparent Vmax for extracellular ion” value under setting [1] was 39,540±2,199 pmol×oocyte^−1×hour^−1. Further, the Km (usually the substrate concentration at which the rate is half of its maximum) under setting [2] stood at 25.5 ± 3.2 mM and the Km (KCC1, read-out: Potassium Km) turned out to be 25.5 mM.
As for HgCl2 [Hg—Cl2], the “response of KCC1 to mercury” value (50 μM HgCl2, hypotonic) is “resistant”.
On to `CCCCNc1cc(C(=O)O)cc(S(N)(=O)=O)c1Oc1ccccc1` [bumetanide], for which the “KCC1 function (86Rb+ uptake, % of control)” value is 51±12% under setting [3] and 19±7% under setting [4]. For the same molecule, the IC50 (KCC1, 10 mM extracellular K+, read-out: apparent half-maximal inhibition (K=0.5) of Cl−-dependent 86Rb+ uptake) is roughly 180 µM.
`C=C1[C@@H](O)[C@@H]2O[C@]3(CC[C@H](/C=C/[C@@H](C)[C@@H]4CC(C)=C[C@@]5(O[C@H](C[C@@](C)(O)C(=O)O)CC[C@H]5O)O4)O3)CC[C@H]2O[C@@H]1[C@@H](O)C[C@H](C)[C@H]1O[C@@]2(CCCCO2)CC[C@H]1C` [okadaic acid]: the “effect on activation of KCC1 by cell swelling” value (hypotonic) is listed as “neither okadaic acid, nor cypermethrin prevented this activation”.
Same read-out and setting: in the case of `COC[C@@H]([C@H](O)[C@H](O)C(=O)NCC[C@H](C)c1nc(/C=C/C[C@@H]2O[C@]3(C[C@@H](O)[C@@H]2C)O[C@H]([C@H](C[C@H](O)[C@H](C)[C@H](O)[C@H](C)/C=C(C)/C(C)=C/C=C/C(C)=C\C#N)OC)[C@H](OP(=O)(O)O)C3(C)C)co1)N(C)C` [calyculin A] it was “completely prevents the activation”.
As to `CCN1C(=O)C=CC1=O` [NEM, N-ethylmaleimide], the “reduction of KCC1-induced 86Rb+ uptake” value (1 mM NEM, hypotonic) came to 55%. Moreover, the “fold activation of KCC1” value (1 mM NEM, isotonic) was 2.6 fold. For the same molecule, for the setting “KCC1, 1 mM NEM, isotonic”, the “86Rb+ uptake in NEM-treated group” value worked out at 319±76 pmol×oocyte^−1×hour^−1.
`CC1(C)C(C=C(Cl)Cl)C1C(=O)OC(C#N)c1cccc(Oc2ccccc2)c1` (centres unmarked) [cypermethrin]: the “effect on activation of KCC1 by cell swelling” value (hypotonic) is “neither okadaic acid, nor cypermethrin prevented this activation”.
For `O=S(=O)(O)c1cc(N=C=S)ccc1C=Cc1ccc(N=C=S)cc1S(=O)(=O)O` [DIDS], the KCC1 function remaining is, setting by setting: under setting [3], 85±6%; under setting [4], 13±2%.
In the case of `Cl` [Chloride], the Hill coefficient (KCC1) was found to be 1.3±0.5. In addition, the “apparent Vmax for extracellular ion” value under setting [1] is on record as 14,930±2,822 pmol×oocyte^−1×hour^−1. The Km reads like this: under setting [2], 17.2 ± 8.3 mM; (KCC1, read-out: Chloride Km) 17.2 mM.
For the molecule `NS(=O)(=O)c1cc2c(cc1Cl)NC(C(Cl)Cl)NS2(=O)=O` (centres unmarked) [trichlormethiazide], the “KCC1 function (86Rb+ uptake, % of control)” value is recorded as 64±4% under setting [3] and 74±8% under setting [4].
`[Ba+2].[Cl-].[Cl-]` [BaCl2]: the “KCC1 function, % of control” value (10 mM BaCl2 in hypotonic uptake medium) is recorded as 79±4.2%.
In the case of `NS(=O)(=O)c1cc(C(=O)O)c(NCc2ccco2)cc1Cl` [furosemide], the “KCC1 function (86Rb+ uptake, % of control)” value runs as follows: under setting [3], 9±2%; under setting [4], 18±8%.
On to `CCCCC1(C2CCCC2)Cc2cc(OCC(=O)O)c(Cl)c(Cl)c2C1=O` (centres unmarked) [DIOA], for which, for the setting “100 μM DIOA, hypotonic”, the “effect on KCC1-induced 86Rb+ uptake” value is on record as “inhibition”.

For the origin of these results see patent US7183075B2, “Purified and isolated potassium-chloride cotransporter nucleic acids and polypeptides and therapeutic and screening methods using same” (Vanderbilt University, priority 2000, dated 2007).
